# Measured values published in patent US9226501B2, “Pesticidal compositions and processes related thereto” (Dow AgroSciences LLC, priority 2012, dated 2016).
# Columns and labels:
# [1] = tested on: Beet Armyworm (BAW) (spodoptera exigua); assay: Bioassay on beet armyworm (BAW), 128-well diet tray assay; format: in vivo; settings: for BAW Rating: Table 5, prophetic compounds subsequently exemplified, beet armyworm; for pest or weed control at 50 µg/cm2: Spodoptera exigua, 168 h, % mortality, second instar larvae, 50 μg/cm^2 on artificial diet, five to seven days, 25° C., read-out: BAW Rating
# Protocol: (§1) Certain molecules disclosed in this document were tested against BAW, CEW and CL using procedures described in the following examples. In the reporting of the results, the “BAW & CEW & CL Rating Table” was used (See Table Section).
# Bioassays on BAW were conducted using a 128-well diet tray assay. One to five second instar BAW larvae were placed in each well (3 mL) of the diet tray that had been previously filled with 1 mL of artificial diet to which 50 μg/cm^2 of the test compound (dissolved in 50 μL of 90:10 acetone-water mixture) had been applied (to each of eight wells) and then allowed to dry. Trays were covered with a clear self-adhesive cover, and held at 25° C., 14:10 light-dark for five to seven days. Percent mortality was recorded for the larvae in each well; activity in the eight wells was then averaged. The results are indicated in the tables entitled “Table 3: Assay Results Part 1” and “Table 4: Assay Results Part 2” (See Table Section).
# [2] = tested on: Cabbage Looper (CL) (Trichoplusia ni); assay: Bioassay on cabbage looper (CL), 128-well diet tray assay; format: in vivo; settings: for CL Rating: Table 5, prophetic compounds subsequently exemplified, cabbage looper; for pest or weed control at 50 µg/cm2: Trichoplusia ni, 168 h, % mortality, second instar larvae, 50 μg/cm^2 on artificial diet, five to seven days, 25° C., read-out: CL Rating
# Protocol: as §1
# Bioassays on CL were conducted using a 128-well diet tray assay. One to five second instar CL larvae were placed in each well (3 mL) of the diet tray that had been previously filled with 1 mL of artificial diet to which 50 μg/cm^2 of the test compound (dissolved in 50 μL of 90:10 acetone-water mixture) had been applied (to each of eight wells) and then allowed to dry. Trays were covered with a clear self-adhesive cover, and held at 25° C., 14:10 light-dark for five to seven days. Percent mortality was recorded for the larvae in each well; activity in the eight wells was then averaged. The results are indicated in the table entitled “Table 4: Assay Results Part 2” (See Table Section).
Structure (SMILES),BAW Rating [1],CL Rating [2],pest or weed control at 50 µg/cm2 [1],pest or weed control at 50 µg/cm2 [2]
O=C(NCC(=S)NCC(F)(F)F)c1ccc(/C=C/C(c2cc(Cl)c(F)c(Cl)c2)C(F)(F)F)cc1C(F)(F)F (stereo not shown) [P1866],A (50-100),A (50-100),,
Cc1cc(/C=C/C(c2cc(Cl)c(Cl)c(Cl)c2)C(F)(F)F)ccc1C(=S)NCC(=S)NCC(F)(F)F (stereo not shown) [P15],A (50-100),A (50-100),,
O=C(CNC(=O)c1ccc(/C=C/C(c2cc(F)cc(C(F)(F)F)c2)C(F)(F)F)cc1Br)NCC(F)(F)F (stereo not shown) [P1340],A (50-100),A (50-100),,
CCC[C@@H](NC(=O)c1ccc(/C=C/C(c2cc(Cl)c(Cl)c(Cl)c2)C(F)(F)F)cc1Br)C(=O)NCC(F)(F)F (stereo partly shown) [FA19],,,50 to 100%,50 to 100%
CC(C)(NC(=O)c1ccc(/C=C/C(c2cc(Cl)c(Cl)c(Cl)c2)C(F)(F)F)cc1Br)C(=S)NCC(F)(F)F (stereo not shown) [FA11],,,0 to 50%,50 to 100%
Cc1cc(/C=C/C(c2cc(Cl)c(Cl)c(Cl)c2)C(F)(F)F)ccc1C(=S)NCC(=O)NCC(F)(F)F (stereo not shown) [P1564],A (50-100),A (50-100),,
C[C@@H](NC(=O)c1ccc(/C=C/C(c2cc(Cl)c(Cl)c(Cl)c2)C(F)(F)F)cc1)C(=O)NCC(F)(F)F (stereo partly shown) [P1603],A (50-100),A (50-100),,
CC(NC(=O)c1ccc(/C=C/C(c2cc(Cl)c(Cl)c(Cl)c2)C(F)(F)F)cc1Br)C(=O)NCC(F)F (stereo not shown) [P1611A],A (50-100),A (50-100),,
Cc1cc(C(/C=C/c2ccc(C(=O)N[C@H](C)C(=O)NCC(F)(F)F)c(C(F)(F)F)c2)C(F)(F)F)cc(C)c1F (stereo partly shown) [P516],A (50-100),A (50-100),,
O=C(NCC(=S)NCC(F)(F)F)c1ccc(/C=C/C(c2cc(Cl)c(F)c(Cl)c2)C(F)(F)F)cc1Br (stereo not shown) [P1864],A (50-100),A (50-100),,
Cc1ccc(C(/C=C/c2ccc(C(=O)N[C@H](C)C(=O)NCC(F)(F)F)c(Br)c2)C(F)(F)F)cc1Cl (stereo partly shown) [P442],A (50-100),A (50-100),,
O=C(CNC(=O)c1ccc(/C=C/C(c2cc(Cl)c(Cl)c(Cl)c2)C(F)(F)F)cc1Br)NCCC(F)(F)F (stereo not shown) [FA7],,,50 to 100%,50 to 100%
CC(C)(NC(=O)c1ccc(/C=C/C(c2cc(Cl)c(Cl)c(Cl)c2)C(F)(F)F)cc1Br)C(=O)NCC#N (stereo not shown) [FA14],,,50 to 100%,50 to 100%
O=C(CNC(=O)c1ccc(/C=C/C(c2cc(C(F)(F)F)cc(C(F)(F)F)c2)C(F)(F)F)cc1Br)NCC(F)(F)F (stereo not shown) [P1269],A (50-100),A (50-100),,
CC(C)(NC(=S)c1ccc(/C=C/C(c2cc(Cl)c(Cl)c(Cl)c2)C(F)(F)F)cc1Cl)C(=S)NCC(F)(F)F (stereo not shown) [FA10],,,0 to 50%,0 to 50%
Cc1cc(/C=C/C(c2cc(Br)cc(Br)c2)C(F)(F)F)ccc1C(=O)NCC(=O)NCC(F)(F)F (stereo not shown) [P1972],A (50-100),A (50-100),,
Cc1cc(/C=C/C(c2cc(Br)cc(Br)c2)C(F)(F)F)ccc1C(=O)NCC(=O)NC(C)C(F)(F)F (stereo not shown) [P2012],A (50-100),A (50-100),,
CC(C)[C@@H](NC(=O)c1ccc(/C=C/C(c2cc(Cl)c(Cl)c(Cl)c2)C(F)(F)F)cc1Br)C(=O)NCC(F)(F)F (stereo partly shown) [FA32],,,50 to 100%,50 to 100%
C[C@@H](NC(=O)c1ccc(/C=C/C(c2cc(Cl)c(Cl)c(Cl)c2)C(F)(F)C(F)(F)F)cc1C(F)(F)F)C(=O)NCC(F)(F)F (stereo partly shown) [P1601],A (50-100),A (50-100),,

Structure (SMILES),BAW Rating [1],CL Rating [2],pest or weed control at 50 µg/cm2 [1],pest or weed control at 50 µg/cm2 [2]
O=C(CNC(=O)c1ccc(/C=C/C(c2ccc(Cl)c(Cl)c2)C(F)(F)F)cc1Br)NCC(F)(F)F (stereo not shown) [P1776],A (50-100),A (50-100),,
C[C@@H](NC(=O)c1ccc(/C=C/C(c2ccc(F)c(C#N)c2)C(F)(F)F)cc1C(F)(F)F)C(=O)NCC(F)(F)F (stereo partly shown) [P804],A (50-100),A (50-100),,
O=C(CNC(=O)c1ccc(/C=C/C(c2cc(F)c(F)c(F)c2)C(F)(F)F)cc1Br)NCC(F)(F)F (stereo not shown) [P1197],A (50-100),A (50-100),,
C[C@@H](NC(=O)c1ccc(/C=C/C(c2cc(Br)cc(Br)c2)C(F)(F)F)cc1C(F)(F)F)C(=O)NCC(F)F (stereo partly shown) [P2038],A (50-100),A (50-100),,
COc1c(F)cc(C(/C=C/c2ccc(C(=O)NCC(=O)NCC(F)(F)F)c(Br)c2)C(F)(F)F)cc1F (stereo not shown) [FA8],,,0 to 50%,50 to 100%
C[C@@H](NC(=O)c1ccc(/C=C/C(c2cc(Cl)cc(Br)c2)C(F)(F)F)cc1C(F)(F)F)C(=O)NCC(F)(F)F (stereo partly shown) [P588],A (50-100),A (50-100),,
Cc1cc(C(/C=C/c2ccc(C(=O)N[C@H](C)C(=O)NCC(F)(F)F)c(C(F)(F)F)c2)C(F)(F)F)ccc1F (stereo partly shown) [P1092],A (50-100),A (50-100),,
C[C@@H](NC(=O)c1ccc(/C=C/C(c2cc(Cl)cc(Cl)c2)C(F)(F)F)cc1Br)C(=O)NCC(F)(F)F (stereo partly shown) [P1696],A (50-100),A (50-100),,
Cc1cc(C(/C=C/c2ccc(C(=O)N[C@H](C)C(=O)NCC(F)(F)F)c(Br)c2)C(F)(F)F)ccc1F (stereo partly shown) [P1090],A (50-100),A (50-100),,
C[C@@H](NC(=O)c1ccc(/C=C/C(c2cc(Cl)cc(Cl)c2)C(F)(F)C(F)(F)F)cc1C(F)(F)F)C(=O)NCC(F)(F)F (stereo partly shown) [P1693],A (50-100),A (50-100),,
Cc1cc(/C=C/C(c2cc(Cl)c(Cl)c(Cl)c2)C(F)(F)F)ccc1C(=O)NCC(=O)NCC(F)F (stereo not shown) [FA2],,,50 to 100%,50 to 100%
CCc1cc(Cl)cc(C(/C=C/c2ccc(C(=O)N[C@H](C)C(=O)NCC(F)(F)F)c(Br)c2)C(F)(F)F)c1 (stereo partly shown) [FA31],,,50 to 100%,50 to 100%
O=C(CNC(=O)c1ccc(/C=C/C(c2ccc(Cl)c(Cl)c2)C(F)(F)F)cc1)NCC(F)(F)F (stereo not shown) [P1781],A (50-100),A (50-100),,
C[C@@H](NC(=O)c1ccc(/C=C/C(c2ccc(Br)c(Br)c2)C(F)(F)F)cc1C(F)(F)F)C(=O)NCC(F)(F)F (stereo partly shown) [P660],A (50-100),A (50-100),,
O=C(CNC(=O)c1ccc(/C=C/C(c2cc(Cl)cc(C(F)(F)F)c2)C(F)(F)F)cc1Br)NCC(F)(F)F (stereo not shown) [P1411],A (50-100),A (50-100),,
Cc1ccc(C(/C=C/c2ccc(C(=O)N[C@H](C)C(=O)NCC(F)(F)F)c(C(F)(F)F)c2)C(F)(F)F)cc1Cl (stereo partly shown) [P444],A (50-100),A (50-100),,
C=Cc1cc(/C=C/C(c2cc(Cl)c(Cl)c(Cl)c2)C(F)(F)F)ccc1C(=O)NCC(=O)NCC(F)(F)F (stereo not shown) [FA18],,,50 to 100%,50 to 100%
Cc1cc(/C=C/C(c2cc(Cl)c(Cl)c(Cl)c2)C(F)(F)F)ccc1C(=O)NCC(=O)NC(C)C(F)(F)F (stereo not shown) [P1592],A (50-100),A (50-100),,
CC(NC(=O)CNC(=O)c1ccc(/C=C/C(c2cc(Br)cc(Br)c2)C(F)(F)F)cc1Br)C(F)(F)F (stereo not shown) [P2009],A (50-100),A (50-100),,
